Source: patent US20040198831A1, “Remedial agent for arthrosis deformans” (priority 2001, published 2004)

How the values were obtained:
model of OA in rabbits = conditions: reported in Inflamm Res 44, Suppl 2, S117-118 (1995); cited from earlier work
rat = assay: toxicity, single oral administration to rat; format: in vivo; conditions: oral administration to rat once
Method: It was considered that the toxicities of the compounds represented by the formula (I) could be very low and safe to use as a medicine. For example, the lowest lethal dose in oral administration of compound (II) to rat once was 2000 mg/kg or more.

[1] = test system: partial meniscectomy model in rabbits; assay: partial meniscectomy model of osteoarthritis in rabbits (erosion area); format: in vivo, rabbit; conditions: female rabbits, 1, 3 and 10 mg/kg per day, administered twice a day, 7 days after operation, FIG. 1
Method: Efficiencies of the compounds in the present invention on osteoarthrosis were proven, for example, by an experiment of a partial meniscectomy model in rabbits.
Female rabbits (Kbs: NZW (Healthy)) were preliminarily bred for a week and subjected to ablative operation of meniscus by the following method.
Each animal was anesthetized by a subcutaneous injection of 2% parenteral celactal (0.05 ml/kg) to the poll and an intravenous injection of nembutal (20 mg/kg) to the marginal auricle. Their right knees were disinfected with Iodine tincture that dilutes five times with distilled water. If necessary, local anesthesia was performed by dropping 2% of parenteral xylocaine to incised part.
Then, skins and articular capsules outside knees of right hind legs were incised at right angle to patellar ligament, fibular collateral ligaments and sesamoid ligaments were transected. In that case, parenteral solution of bosmin was dropped for the arrest of hemorrhage. […]
After anesthesia by an intravenous injection of parenteral nembutal (40 mg/kg) to marginal auricle, the animals were made to die by venesection and gathered their right knees of joint part. […] After collecting all samples and masking them, their erosion areas were measured with a stereoscopic microscope. […]

Row | SMILES | effect on a model of OA in rabbits (model of OA in rabbits) | lowest lethal dose (rat) [mg/kg] | inhibitory effect on erosion area of thigh bone [1]
1 | COc1ccc(S(=O)(=O)N(Cc2cccnc2)[C@@H](C(=O)NO)C(C)C)cc1.Cl [CGS-27023A, 2(R)-[N-(4-methoxyphenylsulfonyl)-N-(3-pyridylmethyl)amino]-3-methylbutanohydroxamic acid hydrochloride] | could be effect | – | –
2 | C[C@@H](C[C@@H](CO)NC(=O)c1ccc(Oc2ccccc2)cc1)C(=O)NO [compound (II), N-hydroxy-5-hydroxy-2(S)-methyl-4(S)-(4-phenoxybenzoyl)aminopentanamide] | – | ≥ 2000 | inhibitory effect
